Earlier results in US20080112918A1, “Method for treating gout and binding uric acid” (priority 2001, published 2008).

Settings: administered orally; treatment of gouty arthritis

## COc1cc2c(c(OC)c1OC)-c1ccc(OC)c(=O)cc1[C@@H](NC(C)=O)CC2 [colchicine]
  people who cannot tolerate the drug because of side effects: 80%
